Data on five molecules can be found in US12054498B2, “Heteroaromatic macrocyclic ether chemotherapeutic agents” (Nuvalent, Inc., priority 2020, dated 2024).

For experiment [1], the target named is T1, ALK-wt (Homo sapiens, UniProt Q9UM73).
T1 construct: purchased Carna 08-518
Description: Biochemical kinase assay, ALK-wt kinase domain. The settings on record: apparent inhibitory constant, Morrison equation; ATP 2 mM in substrate solution; read-out: ALK-wt Ki^app. An outline of the steps: (§1)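 Compound in DMSO added first, then substrate solution (ATP 2 mM; AQT0101 or AQT0104, 26 μM; pH 7.5 HEPES, 10 mM MgCl2), then kinase solution with enzyme at 0.5–3 nM depending on construct. Kinetic read every 2 min for 120 min at 30° C; Ki^app by Morrison regression.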

For experiment [2], the target named is T2, ALK L1196M/G1202R (Homo sapiens, UniProt Q9UM73, G1202R/L1196M).
T2 construct: purchased SignalChem A19-12NG
T2 sequence (Q9UM73 1116-1392 L1196M/G1202R limits assumed): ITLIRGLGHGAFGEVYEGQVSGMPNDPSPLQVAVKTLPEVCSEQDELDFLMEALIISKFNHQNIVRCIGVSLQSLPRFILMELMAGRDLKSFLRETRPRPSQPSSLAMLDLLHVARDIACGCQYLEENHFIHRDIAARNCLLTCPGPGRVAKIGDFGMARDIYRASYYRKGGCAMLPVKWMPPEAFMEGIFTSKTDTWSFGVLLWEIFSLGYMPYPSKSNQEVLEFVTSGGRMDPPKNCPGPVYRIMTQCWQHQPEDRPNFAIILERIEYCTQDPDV
Description: Biochemical kinase assay, ALK L1196M/G1202R kinase domain. Conditions: apparent inhibitory constant, Morrison equation; ATP 2 mM in substrate solution; read-out: ALK-L1196M-G1202R Ki^app. An outline of the steps:
as §1

Experiment [3] addresses T3, ROS1-wt (Homo sapiens, UniProt P08922).
T3 construct: purchased Carna 08-163
Nature of the experiment: Biochemical kinase assay, ROS1-wt kinase domain. The settings on record: apparent inhibitory constant, Morrison equation; ATP 2 mM in substrate solution; read-out: ROS1-wt Ki^app. An outline of the steps:
(§2)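 Kinetic read: 485 nm, 2-min intervals, 120 min, 30 °C. Substrate mix — ATP 2 mM, AQT0101 26 μM, HEPES 50 mM pH 7.5, MgCl2 10 mM. Output: Ki^app, Morrison equation.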

Experiment [4] addresses T4, ROS1-G2032R (Homo sapiens, UniProt P08922, G2032R).
T4 construct: purchased SignalChem R14-12BG
Description: Biochemical kinase assay, ROS1-G2032R kinase domain. Conditions: apparent inhibitory constant, Morrison equation; ATP 2 mM in substrate solution; read-out: ROS1-G2032R Ki^app. An outline of the steps:
as §2

Experiment [5] addresses T5, TRKA-wt (Homo sapiens, UniProt P04629).
T5 construct: or TRKA-wt (1 nM, BPS Bio, 40280) kinase domains in buffer; purchased BPS Bio 40280
Description: Biochemical kinase assay, TRKA-wt kinase domain. Conditions: apparent inhibitory constant, Morrison equation; ATP 2 mM in substrate solution; read-out: TRKA-wt Ki^app. An outline of the steps:
as §1

The target in experiment [6] is T6, Ba/F3 cells CD74-ROS1 wild-type (wt) (Homo sapiens, UniProt P08922).
T6 construct: fusion of the C-terminus of ROS1 with the N-terminus of various partner proteins; host or cells: Ba/F3 (RIKEN), retroviral pMSCV-puro; the other entry of the earlier key: CD74 (P04233, HLA class II histocompatibility antigen gamma chain)
T6 sequence (P08922 1883-2347 limits assumed): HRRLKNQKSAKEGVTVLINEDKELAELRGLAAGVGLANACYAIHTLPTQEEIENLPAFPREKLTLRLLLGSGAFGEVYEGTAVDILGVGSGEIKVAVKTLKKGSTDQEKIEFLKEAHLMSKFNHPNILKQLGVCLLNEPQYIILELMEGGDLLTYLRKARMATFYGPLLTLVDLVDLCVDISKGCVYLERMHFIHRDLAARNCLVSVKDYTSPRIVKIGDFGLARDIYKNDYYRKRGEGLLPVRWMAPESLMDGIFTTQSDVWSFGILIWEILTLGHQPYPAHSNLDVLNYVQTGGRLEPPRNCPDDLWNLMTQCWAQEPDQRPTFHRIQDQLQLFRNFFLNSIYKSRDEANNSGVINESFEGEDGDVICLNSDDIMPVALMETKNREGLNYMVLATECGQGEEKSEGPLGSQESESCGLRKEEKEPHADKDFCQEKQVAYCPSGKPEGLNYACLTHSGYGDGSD
Description: Ba/F3 cell proliferation assay, CD74-ROS1 wild-type. Format: cell-based. Conditions: 72 hours, CellTiter-Glo. An outline of the steps: (§3)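 Cells seeded 1 day, then treated with 3-fold compound dilutions for 72 h; viability by CellTiter-Glo luminescence. IC50 from percent inhibition by four-parameter logistic fit.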
In general terms: ATP-based viability assays read luminescence as a measure of living cells.

For experiment [7], the target named is T7, Ba/F3 cells CD74-ROS1 G2032R (Homo sapiens, UniProt P08922, G2032R).
T7 construct: fusion of the C-terminus of ROS1 with the N-terminus of various partner proteins; host or cells: Ba/F3 (RIKEN), retroviral pMSCV-puro; the other entry of the earlier key: CD74 (P04233, HLA class II histocompatibility antigen gamma chain)
T7 sequence (P08922 1883-2347 G2032R limits assumed): as the sequence (P08922 1883-2347 limits assumed) above, with G150R counted along it
Description: Ba/F3 cell proliferation assay, CD74-ROS1 G2032R. Type of experiment: cell-based. Conditions: 72 hours, CellTiter-Glo. An outline of the steps: as §3

For experiment [8], the target named is T8, Ba/F3 cells EML4-ALK wt (variant 1) (Homo sapiens, UniProt Q9UM73).
T8 construct: echinoderm microtubule-associated protein-like 4 (EML4) gene and the ALK tyrosine kinase domain; host or cells: Ba/F3 (RIKEN), retroviral pMSCV-puro; the other entry of the earlier key: EML4 (Q9HC35, Echinoderm microtubule-associated protein-like 4)
T8 sequence (Q9UM73 with tags, fused parts or gaps): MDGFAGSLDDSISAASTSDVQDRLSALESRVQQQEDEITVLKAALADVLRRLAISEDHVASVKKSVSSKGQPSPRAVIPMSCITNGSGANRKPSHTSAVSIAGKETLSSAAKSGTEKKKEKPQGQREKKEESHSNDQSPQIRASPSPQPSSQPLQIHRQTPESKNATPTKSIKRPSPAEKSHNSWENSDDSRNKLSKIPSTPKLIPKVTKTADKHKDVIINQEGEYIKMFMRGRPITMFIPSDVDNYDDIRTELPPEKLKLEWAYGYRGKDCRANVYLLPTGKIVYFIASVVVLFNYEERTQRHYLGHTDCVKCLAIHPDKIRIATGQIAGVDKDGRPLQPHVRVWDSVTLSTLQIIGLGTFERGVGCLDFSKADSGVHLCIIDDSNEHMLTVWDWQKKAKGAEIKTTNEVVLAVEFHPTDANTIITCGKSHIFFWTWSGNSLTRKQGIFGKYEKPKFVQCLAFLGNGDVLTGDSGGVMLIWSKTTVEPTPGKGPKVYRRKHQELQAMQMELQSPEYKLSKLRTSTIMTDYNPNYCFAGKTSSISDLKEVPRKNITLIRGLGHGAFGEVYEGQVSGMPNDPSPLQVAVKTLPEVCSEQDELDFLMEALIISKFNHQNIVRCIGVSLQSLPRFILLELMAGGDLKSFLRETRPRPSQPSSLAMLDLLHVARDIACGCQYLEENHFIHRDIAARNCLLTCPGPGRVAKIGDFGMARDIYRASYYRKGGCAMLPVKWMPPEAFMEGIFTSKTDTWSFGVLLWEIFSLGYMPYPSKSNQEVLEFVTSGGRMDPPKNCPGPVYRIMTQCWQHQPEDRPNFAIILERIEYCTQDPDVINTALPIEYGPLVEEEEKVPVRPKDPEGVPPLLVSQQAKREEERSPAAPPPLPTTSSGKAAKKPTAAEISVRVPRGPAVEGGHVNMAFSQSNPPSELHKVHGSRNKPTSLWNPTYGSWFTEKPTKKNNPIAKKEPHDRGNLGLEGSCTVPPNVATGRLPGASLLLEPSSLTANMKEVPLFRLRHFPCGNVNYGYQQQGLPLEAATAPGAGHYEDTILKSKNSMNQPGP
Nature of the experiment: Ba/F3 cell proliferation assay, EML4-ALK wt (variant 1). The settings on record: 72 hours, CellTiter-Glo. Format: cell-based. An outline of the steps:
(§4)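 IL-3-independent Ba/F3 monoclones, puromycin-selected, transduced with fusion genes; 1,000 cells/well, 1 day rest, 3-fold compound series, 72 h. Read: CellTiter-Glo luminescence. IC50 from % inhibition vs concentration, 4-parameter logistic.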

The target in experiment [9] is T9, Ba/F3 cells EML4-ALK L1196M/G1202R (variant 1) (Homo sapiens, UniProt Q9UM73, G1202R/L1196M).
T9 construct: echinoderm microtubule-associated protein-like 4 (EML4) gene and the ALK tyrosine kinase domain; host or cells: Ba/F3 (RIKEN), retroviral pMSCV-puro; the other entry of the earlier key: EML4 (Q9HC35, Echinoderm microtubule-associated protein-like 4)
T9 sequence (Q9UM73 with tags, fused parts or gaps L1196M/G1202R): as the sequence (Q9UM73 with tags, fused parts or gaps) above, with L635M, G641R counted along it
Nature of the experiment: Ba/F3 cell proliferation assay, EML4-ALK L1196M/G1202R (variant 1). Format: cell-based. The settings on record: 72 hours, CellTiter-Glo. An outline of the steps: as §4

Experiment [10] deals with T10, Ba/F3 cells TPM3-TRKA (Homo sapiens, UniProt P04629).
T10 construct: host or cells: Ba/F3 (RIKEN), retroviral pMSCV-puro; the other entry of the earlier key: TPM3 (P06753, Tropomyosin alpha-3 chain)
T10 sequence (P04629 510-796 limits assumed): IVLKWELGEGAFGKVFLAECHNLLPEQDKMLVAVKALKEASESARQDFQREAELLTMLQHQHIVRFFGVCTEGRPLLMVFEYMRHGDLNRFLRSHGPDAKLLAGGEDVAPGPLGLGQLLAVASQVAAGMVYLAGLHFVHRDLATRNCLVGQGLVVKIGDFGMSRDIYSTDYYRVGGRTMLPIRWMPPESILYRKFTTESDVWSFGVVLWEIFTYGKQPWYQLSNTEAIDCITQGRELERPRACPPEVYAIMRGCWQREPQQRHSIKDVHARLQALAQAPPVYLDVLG
Description: Ba/F3 cell proliferation assay, TPM3-TRKA. Type of experiment: cell-based. The settings on record: 72 hours, CellTiter-Glo, read-out: TPM3-NTRK1-wt IC50. An outline of the steps:
as §4

Experiment [11] deals with TPM3-NTRK1-wt IC50 / primary target IC50 (e.g. CD74-ROS1-wt). Nature of the experiment: TRKA selectivity in Ba/F3 cells (TRKA potency divided by primary target potency). The settings on record: for TPM3-NTRK1-wt/CD74-ROS1-G2032R selectivity ratio: TRKA potency / CD74-ROS1-G2032R potency; for TPM3-NTRK1-wt/CD74-ROS1-wt selectivity ratio: TRKA potency / CD74-ROS1-wt potency; for TPM3-NTRK1-wt/EML4-ALK-L1196M-G1202R selectivity ratio: TRKA potency / EML4-ALK-L1196M-G1202R potency; for TPM3-NTRK1-wt/EML4-ALK-wt selectivity ratio: TRKA potency / EML4-ALK-wt potency. Type of experiment: cell-based. How it is done: TRKA selectivity was calculated by dividing a compound's TRKA potency by its primary target potency (e.g. TPM3-NTRK1-wt IC50/CD74-ROS1-wt IC50). Compound selectivity can be interpreted by binning ratio values: bin A for very high selectivity, ratio >30-fold; bin B for high selectivity, ratio >10-fold; bin C for moderate selectivity, ratio ≥1; and bin D for low selectivity, ratio <1. […] (nd=not determined).

The structures appear in SMILES notation.

T5 sequence (P04629 510-781 limits assumed): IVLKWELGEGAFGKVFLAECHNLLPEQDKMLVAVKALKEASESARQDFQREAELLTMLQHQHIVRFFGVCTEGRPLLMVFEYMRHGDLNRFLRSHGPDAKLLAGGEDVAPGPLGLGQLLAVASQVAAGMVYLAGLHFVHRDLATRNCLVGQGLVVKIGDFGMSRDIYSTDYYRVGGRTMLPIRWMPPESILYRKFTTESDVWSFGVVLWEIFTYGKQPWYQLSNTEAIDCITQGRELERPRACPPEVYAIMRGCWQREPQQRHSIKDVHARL
T3 sequence (P08922 1945-2222 limits assumed): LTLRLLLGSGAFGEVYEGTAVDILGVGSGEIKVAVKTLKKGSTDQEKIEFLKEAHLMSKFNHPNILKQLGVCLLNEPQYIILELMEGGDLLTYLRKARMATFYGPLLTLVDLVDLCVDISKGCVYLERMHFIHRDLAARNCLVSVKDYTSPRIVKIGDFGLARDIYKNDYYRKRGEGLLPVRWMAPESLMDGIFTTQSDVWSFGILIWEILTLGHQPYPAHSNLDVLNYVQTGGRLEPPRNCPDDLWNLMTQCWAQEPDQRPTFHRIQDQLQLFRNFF
T4 sequence (P08922 1945-2222 G2032R limits assumed): as the sequence (P08922 1945-2222 limits assumed) above, with G88R counted along it
T1 sequence (Q9UM73 1116-1392 limits assumed): as the sequence (Q9UM73 1116-1392 L1196M/G1202R limits assumed) above, with M81L, R87G counted along it

As to `C[C@H]1Oc2cc(cnc2N)-c2c(C#N)noc2Cc2nn(C)nc2-c2ccc(F)cc21` [Example 25, (19R)-22-amino-16-fluoro-10,19-dimethyl-5,20-dioxa-4,9,10,11,23-pentaazapentacyclo[19.3,1.0^2,^6.0^8,^12.0^13,^18]pentacosa-1(24),2(6),3,8,11,13,15,17,21(25),22-decaene-3-carbonitrile], the Ki is below 50 nM in experiment [1]; 50 to 500 nM in [2]; below 50 nM in experiment [3]; 50 to 500 nM in [4]; above 500 nM in experiment [5]. The IC50 in experiment [6] was 0.1 to 50 nM; in experiment [7] it was 0.1 to 50 nM; in [8], 50 to 500 nM; in [9] it was above 500 nM; in [10] it was above 500 nM. In addition, in experiment [11], the TPM3-NTRK1-wt/CD74-ROS1-G2032R selectivity ratio result is “A (bin A for very high selectivity, ratio >30-fold)”. Moreover, the TPM3-NTRK1-wt/CD74-ROS1-wt selectivity ratio entry in experiment [11] is reported as “A (bin A for very high selectivity, ratio >30-fold)”. Besides, the TPM3-NTRK1-wt/EML4-ALK-L1196M-G1202R selectivity ratio entry in experiment [11] is given as “C (bin C for moderate selectivity, ratio ≥1)”. Also, the TPM3-NTRK1-wt/EML4-ALK-wt selectivity ratio entry in experiment [11] is listed as “A (bin A for very high selectivity, ratio >30-fold)”.
As to `C[C@H]1Oc2cc(cnc2N)-c2c(C3CCC3)noc2Cc2nn(C)nc2-c2ccc(F)cc21` [Example 26, (19R)-3-cyclobutyl-16-fluoro-10,19-dimethyl-5,20-dioxa-4,9,10,11,23-pentaazapentacyclo[19.3.1.0^2,^6.0^8,^12.0^13,^18]pentacosa-1(24),2(6),3,8,11,13,15,1 7,21(25),22-decaen-22-amine], the Ki in [1] was below 50 nM; in [2], below 50 nM; in [3], below 50 nM; in [4] it was below 50 nM; in experiment [5], above 500 nM. For the same molecule, the IC50 in [6] fell in the range of 0.1 to 50 nM; in experiment [7], 0.1 to 50 nM; in [8] it was 0.1 to 50 nM; in experiment [9], 0.1 to 50 nM; in experiment [10], 50 to 500 nM. The TPM3-NTRK1-wt/CD74-ROS1-G2032R selectivity ratio result in [11] is “A (bin A for very high selectivity, ratio >30-fold)”. Besides, the TPM3-NTRK1-wt/CD74-ROS1-wt selectivity ratio entry in experiment [11] is recorded as “A (bin A for very high selectivity, ratio >30-fold)”. In addition, the TPM3-NTRK1-wt/EML4-ALK-L1196M-G1202R selectivity ratio entry in experiment [11] is “C (bin C for moderate selectivity, ratio ≥1)”. In addition, in experiment [11], the TPM3-NTRK1-wt/EML4-ALK-wt selectivity ratio result is “A (bin A for very high selectivity, ratio >30-fold)”.
As to `CCn1nc(Cl)c2c1-c1cnc(N)c(c1)O[C@H](C)c1cc(F)ccc1-c1nn(C)nc1C2` [Example 28, (19R)-5-chloro-3ethyl-16-fluoro-10,19-dimethyl-20-oxa-3,4,9,10,11,23-hexaazapentacyclo[19.3.1.0^2,^6.0^8,^12.0^13,^18]pentacosa-1(24),2(6),4,8,11,13,15,17,21(25),22-decaen-22-amine], the Ki is below 50 nM in [1]; below 50 nM in experiment [2]; below 50 nM in experiment [3]; below 50 nM in experiment [4]; above 500 nM in experiment [5]. In addition, the IC50 in experiment [6] is 0.1 to 50 nM; in [7], 0.1 to 50 nM; in experiment [8] it was 0.1 to 50 nM; in experiment [9], 50 to 500 nM; in [10], 50 to 500 nM. In experiment [11], the TPM3-NTRK1-wt/CD74-ROS1-G2032R selectivity ratio result was “A (bin A for very high selectivity, ratio >30-fold)”. Also, the TPM3-NTRK1-wt/CD74-ROS1-wt selectivity ratio result in experiment [11] is “A (bin A for very high selectivity, ratio >30-fold)”. For the same molecule, the TPM3-NTRK1-wt/EML4-ALK-L1196M-G1202R selectivity ratio result in experiment [11] is “C (bin C for moderate selectivity, ratio ≥1)”. Moreover, in [11], the TPM3-NTRK1-wt/EML4-ALK-wt selectivity ratio result was “B (bin B for high selectivity, ratio >10-fold)”.
On to `CCn1nc(C)c2c1-c1cnc(N)c(c1)O[C@H](C)c1cc(F)ccc1-c1nn(C)nc1C2` [Example 29, (19R)-3-ethyl-16-fluoro-5,10,19-trimethyl-20-oxa-3,4,9,10,11,23-hexaazapentacyclo[19.3.1.0^2,^6.0^8,^12.0^13,^18]pentacosa-1(24),2(6),4,8,11,13,15,17,21(25),22-decaen-22-amine], for which the Ki was below 50 nM in experiment [1]; below 50 nM in experiment [2]; below 50 nM in experiment [3]; below 50 nM in experiment [4]; 50 to 500 nM in experiment [5]. Besides, the IC50 lay in the range of 0.1 to 50 nM in experiment [6]; 0.1 to 50 nM in [7]; 0.1 to 50 nM in [8]; 0.1 to 50 nM in [9]; 50 to 500 nM in [10]. Also, in [11], the TPM3-NTRK1-wt/CD74-ROS1-G2032R selectivity ratio entry is listed as “A (bin A for very high selectivity, ratio >30-fold)”. For the same molecule, the TPM3-NTRK1-wt/CD74-ROS1-wt selectivity ratio result in experiment [11] is “A (bin A for very high selectivity, ratio >30-fold)”. The TPM3-NTRK1-wt/EML4-ALK-L1196M-G1202R selectivity ratio entry in experiment [11] is recorded as “C (bin C for moderate selectivity, ratio ≥1)”. Besides, the TPM3-NTRK1-wt/EML4-ALK-wt selectivity ratio result in experiment [11] was “A (bin A for very high selectivity, ratio >30-fold)”.
Take `C[C@H]1Oc2cc(cnc2N)-c2c(C3CCC3)nnn2Cc2nn(C)nc2-c2ccc(F)cc21` [Example 30, (19R)-3-cyclobutyl-16-fluoro-10,19-dimethyl-20-oxa-4,5,6,9,10,11,23-heptaazapentacyclo[19.3.1.0^2,^6.0^8,^12.0^13,^18]pentacosa-1(24),2,4,8,11,13,15,17,21(25),22-decaen-22-amine]: the Ki in experiment [1] is below 50 nM; in experiment [2], below 50 nM; in experiment [3], below 50 nM; in [4] it was below 50 nM; in experiment [5], above 500 nM. Moreover, the IC50 is 0.1 to 50 nM in [6]; 0.1 to 50 nM in experiment [7]; 0.1 to 50 nM in experiment [8]; 50 to 500 nM in experiment [9]; above 500 nM in [10]. Moreover, the TPM3-NTRK1-wt/CD74-ROS1-G2032R selectivity ratio result in [11] is “A (bin A for very high selectivity, ratio >30-fold)”. Also, the TPM3-NTRK1-wt/CD74-ROS1-wt selectivity ratio result in experiment [11] is “A (bin A for very high selectivity, ratio >30-fold)”. The TPM3-NTRK1-wt/EML4-ALK-L1196M-G1202R selectivity ratio result in [11] is “C (bin C for moderate selectivity, ratio ≥1)”. For the same molecule, the TPM3-NTRK1-wt/EML4-ALK-wt selectivity ratio entry in experiment [11] is listed as “A (bin A for very high selectivity, ratio >30-fold)”.

A word on the IC50: it is the concentration needed to halve the response being measured.
